# Laboratory results from patent US8354414B2, “Substituted bicyclic pyrimidines” (Cephalon, Inc, priority 2006, dated 2013).
# Legend:
# CDK5/GST-p25 = biological target: T1, CDK5/GST-p25 (Homo sapiens, UniProt Q00535); assay: Inhibition of CDK5/GST-p25 kinase activity (ELISA with time-resolved fluorescence readout); type: biochemical
# T1 construct: The final construct, encoding for full-length human CDK5; made in house; host or cells: Sf21 insect cells (baculovirus co-infection)
# Procedure, shortened: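 The substrate, GST-Rb(773-928), was immobilised on plates and phosphorylated for 20 min at 37 °C by 2 ng/ml CDK5/GST-p25 in HEPES pH 7.2 with 10 µM ATP and 10 mM MgCl2. Both proteins were human and co-expressed in insect cells. Ser-780 phosphorylation was read by europium time-resolved fluorescence and converted to IC50.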
# His6-GSK-3β = biological target: T2, His6-GSK-3β (Homo sapiens, UniProt P49841); assay: Inhibition of His6-GSK-3β kinase activity (ELISA-based format, time-resolved fluorescence readout); type: biochemical; conditions: for IC50: class symbols, read-out: GSK3β IC50
# T2 construct: made in house; host or cells: Sf21 insect cells (baculovirus)
# Procedure, shortened: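 Plate-bound recombinant GST-Rb substrate was phosphorylated for 30 min at 37° C by baculovirus-expressed His6-GSK-3β (200 ng/ml) at 20 μM ATP, 10 mM MgCl2, 2.5% DMSO. Europium time-resolved fluorescence of anti-phospho-Ser780 Rb signal gave inhibition, fitted to IC50.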
# T2 sequence (P49841 2-419): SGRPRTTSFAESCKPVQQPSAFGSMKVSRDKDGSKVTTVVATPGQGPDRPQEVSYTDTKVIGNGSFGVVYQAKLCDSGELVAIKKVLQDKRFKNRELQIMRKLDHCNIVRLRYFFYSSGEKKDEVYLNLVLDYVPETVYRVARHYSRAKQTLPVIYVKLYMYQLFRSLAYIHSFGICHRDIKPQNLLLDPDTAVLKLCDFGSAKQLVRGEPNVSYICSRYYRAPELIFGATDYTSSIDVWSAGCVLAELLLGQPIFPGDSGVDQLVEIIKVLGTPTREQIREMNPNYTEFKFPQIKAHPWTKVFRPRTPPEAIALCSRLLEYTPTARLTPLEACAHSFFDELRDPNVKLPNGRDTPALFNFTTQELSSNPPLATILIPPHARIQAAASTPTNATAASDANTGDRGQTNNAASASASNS
# T1 sequence (Q00535 whole entry): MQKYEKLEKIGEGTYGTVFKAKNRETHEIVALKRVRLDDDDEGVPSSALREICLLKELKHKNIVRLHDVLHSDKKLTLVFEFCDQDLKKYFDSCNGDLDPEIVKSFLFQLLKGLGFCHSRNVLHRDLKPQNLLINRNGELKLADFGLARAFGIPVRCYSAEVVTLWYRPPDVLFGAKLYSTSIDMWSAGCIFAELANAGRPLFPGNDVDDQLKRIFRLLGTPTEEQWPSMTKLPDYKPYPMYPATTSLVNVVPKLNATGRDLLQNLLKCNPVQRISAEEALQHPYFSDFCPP
# T1 sequence (Q15078 108-307 partner limits assumed): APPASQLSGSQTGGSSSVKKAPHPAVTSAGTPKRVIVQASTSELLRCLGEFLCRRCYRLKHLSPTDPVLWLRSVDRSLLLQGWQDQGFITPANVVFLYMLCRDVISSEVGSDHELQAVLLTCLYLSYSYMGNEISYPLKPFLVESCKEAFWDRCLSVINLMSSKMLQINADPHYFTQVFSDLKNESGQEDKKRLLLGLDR
SMILES,IC50 (CDK5/GST-p25; class symbols) [nM],IC50 (His6-GSK-3β) [nM],melting point,inhibition at 10 µM (CDK5/GST-p25) [%],IC50 (CDK5/GST-p25; numeric bounds) [nM],GSK3β % @10 μM (His6-GSK-3β; @10 μM) [% @10 μM]
"COCCNc1nc(C2C(=O)Nc3ccc(Cl)cc32)c2cn(CC(C)C)nc2n1 (stereo not drawn) [Example 272, 5-Chloro-3-[2-isobutyl-6-(2-methoxy-ethylamino)-2H-pyrazolo[3,4-d]pyrimidin-4-yl]-1,3-dihydro-indol-2-one]",< 300,< 300,286 to 289 °C,–,–,–
"CCCn1cc2c(C3C(=O)Nc4ccc(Br)cc43)nc(NCCc3cccnc3)nc2n1 (stereo not drawn) [Example 189, 5-Bromo-3-[2-propyl-6-(2-pyridin-3-yl-ethylamino)-2H-pyrazolo [3,4-d]pyrimidin-4-yl]-1,3-dihydro-indol-2-one]",< 300,< 300,294 to 297 °C,–,–,–
"CCCCCn1cc2c(C3C(=O)Nc4ccc(C#N)cc43)nc(NCc3ccncc3)nc2n1 (stereo not drawn) [Example 292, 2-Oxo-3-{2-pentyl-6-[(pyridin-4-ylmethyl)-amino]-2H-pyrazolo [3,4-d]pyrimidin-4-yl}-2,3-dihydro-1H-indole-5-carbonitrile]",< 300,< 300,288 to 290 °C (dec.),–,–,–
"O=C1Nc2cc(Cl)ccc2C1c1ncnc2c1cnn2C1CCCC1 (stereo not drawn) [Example 59, 6-Chloro-3-(1-cyclopentyl-1H-pyrazolo[3,4-d]pyrimidin-4-yl)-1,3-dihydro-indol-2-one]",> 10000,300 to 3000,288 to 291 °C,–,–,–
"O=C1Nc2ccc(C(F)(F)F)cc2C1c1ncnc2nn(C3CCCC3)cc12 (stereo not drawn) [Example 34, 3-(2-Cyclopentyl-2H-pyrazolo [3,4-d]pyrimidin-4-yl)-5-trifluoromethyl-1,3-dihydro-indol-2-one]",< 300,< 300,292 to 293 °C,–,–,–
C[C@H](O)CNc1nc(C2C(=O)Nc3ccc(Br)cc32)c2cn(C3CCCC3)nc2n1 (stereo partly drawn) [Example 372],–,< 300,> 300 °C,77,–,–
"CCCn1cc2c(C3C(=O)Nc4ccc(Br)cc43)nc(NCCCN(C)C)nc2n1 (stereo not drawn) [Example 198, 5-Bromo-3-[6-(3-dimethylamino-propylamino)-2-propyl-2H-pyrazolo [3,4-d]pyrimidin-4-yl]-1,3-dihydro-indol-2-one]",< 300,< 300,286 to 290 °C,–,–,–
"CNc1nc(C2C(=O)Nc3ccccc32)c2cn(C3CCCC3)nc2n1 (stereo not drawn) [Example 154, 3-(2-cyclopentyl-6-methylamino-2H-pyrazolo [3,4-d]pyrimidin-4-yl)-1,3-dihydro-indol-2-one]",–,300 to 3000,> 300 °C,68,–,–
"N#Cc1ccc2c(c1)C(c1ncnc3c1cnn3C1CCCCC1)C(=O)N2 (stereo not drawn) [Example 68, 3-(1-Cyclohexyl-1H-pyrazolo [3,4-de]pyrimidin-4-yl)-2-oxo-2,3-dihydro-1H-indole-5-carbonitrile]",> 10000,> 10000,> 300 °C,–,–,–
"O=C1Nc2ccccc2C1c1nc(NCc2ccncc2)nc2nn(C3CCCC3)cc12 (stereo not drawn) [Example 241, 3-{2-Cyclopentyl-6-[(pyridin-4-ylmethyl)-amino]-2H-pyrazolo[3,4-d]pyrimidin-4-yl}-1,3-dihydro-indol-2-one]",300 to 3000,< 300,198 to 200 °C,–,–,–
"CCOCCn1cc2c(C3C(=O)Nc4ccc(Br)cc43)nc(NCCN(C)C)nc2n1 (stereo not drawn) [Example 237, 5-Bromo-3-[6-(2-dimethylamino-ethylamino)-2-(2-ethoxy-ethyl)2H-pyrazolo[3,4-d]pyrimidin-4-yl]-1,3-dihydro-indol-2-one]",< 300,< 300,247 to 251 °C,–,–,–
"CCOCCn1cc2c(C3C(=O)Nc4ccc(Br)cc43)nc(NC[C@H](C)O)nc2n1 (stereo partly drawn) [Example 238, 5-Bromo-3-[2-(2-ethoxy-ethyl)-6-((S)-2-hydroxy-propylamno)-2H-pyrazolo[3,4-d]pyrimidin-4-yl]-1,3-dihydro-indol-2-one]",< 300,< 300,297 to 299 °C,–,–,–
"CC(=O)NCCNc1nc(C2C(=O)Nc3ccc(C(F)(F)F)cc32)c2cn(C3CCCC3)nc2n1 (stereo not drawn) [Example 163, 3-(2-cyclopentyl-6-(2-acetylamino-ethylamino)-2H-pyrazolo [3,4-d]pyrimidin-4-yl)-5-trifluoromethyl-1,3-dihydro-indol-2-one]",300 to 3000,< 300,> 300 °C,–,–,–
C[C@H](O)CNc1nc(C2C(=O)Nc3ccc(Cl)cc32)c2cn(C3CCCC3)nc2n1 (stereo partly drawn) [Example 374],–,< 300,> 300 °C,56,–,–
"CCOCCn1cc2c(C3C(=O)Nc4ccc(Br)cc43)nc(NC[C@@H](C)O)nc2n1 (stereo partly drawn) [Example 239, 5-Bromo-3-[2-(2-ethoxy-ethyl)-6-((R)-2-hydroxy-propylamino)-2H-pyrazolo[3,4-d]pyrimidin-4-yl]-1,3-dihydro-indol-2-one]",< 300,< 300,298 to 300 °C,–,–,–
C[C@@H](O)CNc1nc(C2C(=O)Nc3ccc(Br)cc32)c2cn(C3CCCC3)nc2n1 (stereo partly drawn) [Example 373],–,< 300,> 300 °C,67,–,–
"O=C1Nc2ccc(Br)cc2C1c1ncnc2nn(C3CCCC3)cc12 (stereo not drawn) [Example 31, 5-Bromo-3-(2-Cyclopentyl-2H-pyrazolo[3,4-d]pyrimidin-4-yl)-2-oxo-1,3-dihydro-indol-2-one]",< 300,< 300,319 to 322 °C (dec.),–,–,–
"CCCn1ncc2c(C3C(=O)Nc4ccc(Cl)cc43)ncnc21 (stereo not drawn) [Example 95, 5-Chloro-3-(1-propyl-2H-pyrazolo[3,4-d]pyrimidin-4-yl)-1,3-dihydro-indol-2-one]",–,> 10000,293 to 297 °C,–,> 3000,–
"CCCCCn1cc2c(C3C(=O)Nc4ccc(C#N)cc43)nc(NC)nc2n1 (stereo not drawn) [Example 294, 3-(6-Methylamino-2-pentyl-2H-pyrazolo [3,4-d]pyrimidin-4-yl)-2-oxo-2,3-dihydro-1H-indole-5-carbonitrile]",–,–,> 310 °C,73,–,70
"CCOCCn1cc2c(C3C(=O)Nc4ccc(Cl)cc43)nc(NCCN(C)C)nc2n1 (stereo not drawn) [Example 216, 5-Chloro-3-[6-(2-dimethylamino-ethylamino)-2-(2-ethoxy-ethyl)-2H-pyrazolo[3,4-d]pyrimidin-4-yl]-1,3-dihydro-indol-2-one]",300 to 3000,300 to 3000,293 to 295 °C,–,–,–
"N#Cc1ccc2c(c1)NC(=O)C2c1ncnc2c1cnn2C1CCCC1 (stereo not drawn) [Example 63, 3-(1-Cyclopentyl-1H-pyrazolo [3,4-d]pyrimidin-4-yl)-2-oxo-2,3-dihydro-1H-indole-6-carbonitrile]",> 10000,300 to 3000,335 to 338 °C,–,–,–
"O=C1Nc2ccc(F)c(F)c2C1c1ncnc2c1cnn2C1CCCC1 (stereo not drawn) [Example 67, 3-(1-Cyclopentyl-1H-pyrazolo[3,4-d]pyrimidin-4-yl)-4,5-difluoro-1,3-dihydro-indol-2-one]",> 10000,> 10000,> 300 °C,–,–,–
"O=C1Nc2ccc(C(F)(F)F)cc2C1c1nc(NCCc2ccccn2)nc2nn(C3CCCC3)cc12 (stereo not drawn) [Example 247, 3-[2-Cyclopentyl-6-(2-pyridin-2-yl-ethylamino)-2H-pyrazolo[3,4-d]pyrimidin-4-yl]-5-trifluoromethyl-1,3-dihydro-indol-2-one]",> 10000,< 300,> 300 °C,–,–,–
"O=C1Nc2ccc(Cl)cc2C1c1nc(NCCc2cccnc2)nc2nn(C3CCCC3)cc12 (stereo not drawn) [Example 279, 5-Chloro-3-[2-cyclopentyl-6-(2-pyridin-3-yl-ethylamino)-2H-pyrazolo[3,4-d]pyrimidin-4-yl]-1,3-dihydro-indol-2-one]",300 to 3000,< 300,277 to 281 °C,–,–,–
"CNCCCNc1nc(C2C(=O)Nc3ccc(Br)cc32)c2cn(C3CCCC3)nc2n1.Cl (stereo not drawn) [Example 379, 5-Bromo-3-[2-cyclopentyl-6-(3-methylamino-propylamino)-2H-pyrazolo[3,4-d]pyrimidin-4-yl]-1,3-dihydro-indol-2-one hydrochloride salt]",–,< 300,208 to 211 °C,–,> 3000,–
"CCCCCn1cc2c(C3C(=O)Nc4ccc(C#N)cc43)nc(Cl)nc2n1 (stereo not drawn) [Example 291, 3-(6-Chloro-2-pentyl-2H-pyrazolo [3,4-d]pyrimidin-4-yl)-2-oxo-2,3-dihydro-1H-indole-5-carbonitrile]",–,300 to 3000,254 °C (dec.),–,> 3000,–
"Cn1cc2c(C3C(=O)Nc4ccc(C#N)cc43)ncnc2n1 (stereo not drawn) [Example 84, 3-(2-Methyl-2H-pyrazolo [3,4-d]pyrimidin-4-yl)-2-oxo-2,3-dihydro-1H-indole-5-carbonitrile]",< 300,300 to 3000,> 350 °C,–,–,–
"Cl.NCCCNc1nc(C2C(=O)Nc3ccc(C(F)(F)F)cc32)c2cn(C3CCCC3)nc2n1 (stereo not drawn) [Example 254, 3-[6-(3-Amino-propylamino)-2-cyclopentyl-2H-pyrazolo[3,4-d]pyrimidin-4-yl]-5-trifluoromethyl-1,3-dihydro-indol-2-one hydrochloride salt]",300 to 3000,< 300,304 to 306 °C,–,–,–
